ChEMBL document CHEMBL1201862, “PubChem BioAssay data set” (2004)
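Cells were grown in 96-well plates and exposed to each compound for 48 hours at five concentrations; endpoints were interpolated linearly between bracketing concentrations, or set to the highest concentration if not reached. At the GI50, growth is halved.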 Activity calls are given as the source filed them. No stated cut-off is given here; in the data, active = GI50 up to about 1.1 µM and inactive = higher.

What was measured:
Assay in all cases: DTP human tumour cell line panel, 48 h
[1] = system: 786-0
[2] = system: A549
[3] = system: HL-60
[4] = system: Hs-578T
[5] = system: K562
[6] = system: KM12
[7] = system: LOX IMVI
[8] = system: MOLT-4
[9] = system: NCI-H226
[10] = system: OVCAR-5
[11] = system: OVCAR-8
[12] = system: RXF 393
[13] = system: SK-MEL-28
[14] = system: SK-MEL-2
[15] = system: SK-MEL-5
[16] = system: SNB-19
[17] = system: SNB-75
[18] = system: TK-10
[19] = system: U-251
[20] = system: UACC-62

Compound | GI50 [1] | GI50 [2] | GI50 [3] | GI50 [4] | GI50 [5] | GI50 [6] | GI50 [7] | GI50 [8] | GI50 [9] | GI50 [10] | GI50 [11] | GI50 [12] | GI50 [13] | GI50 [14] | GI50 [15] | GI50 [16] | GI50 [17] | GI50 [18] | GI50 [19] | GI50 [20]
CC1CC[C@@]2(OC1)OC1C[C@H]3[C@@H]4CC[C@H]5CC(OC6OC(CO)C(O)C(OC7OC(CO)C(OC8OC(CO)C(O)C(OC9OC(CO)C(O)C(O)C9O)C8OC8OC(CO)C(O)C(O)C8O)C(O)C7O)C6O)[C@H](O)CC5(C)[C@H]4CCC3(C)C1[C@@H]2C (stereo not given in full) | 1.88 µM (inactive) | 9.4 µM (inactive) | 2.57 µM (inactive) | 1.84 µM (inactive) | 3.37 µM (inactive) | 4.79 µM (inactive) | 2.29 µM (inactive) | 5.18 µM (inactive) | 6.53 µM (inactive) | 5.33 µM (inactive) | 1.7 µM (inactive) | 1.34 µM (inactive) | 7.45 µM (inactive) | 3.27 µM (inactive) | 6.95 µM (inactive) | 2.2 µM (inactive) | 3.98 µM (inactive) | 5.57 µM (inactive) | 2.7 µM (inactive) | 8.69 µM (inactive)
Clc1nc2c(C#Cc3ccccc3)ncnc2n1C1CCCCO1 (stereo not given) | 11.6 µM (inactive) | 16.5 µM (inactive) | 11.7 µM (inactive) | 24.7 µM (inactive) | 30.3 µM (inactive) | 14 µM (inactive) | 12.6 µM (inactive) | 17.7 µM (inactive) | 71.3 µM (inactive) | 12.6 µM (inactive) | 19.9 µM (inactive) | 10.4 µM (inactive) | 26.5 µM (inactive) | 12.9 µM (inactive) | 11.6 µM (inactive) | 19.6 µM (inactive) | 18.1 µM (inactive) | 20.5 µM (inactive) | 12.6 µM (inactive) | 13.4 µM (inactive)
C(=N\Nc1ccc(-c2nc3ccccc3[nH]2)cc1)/c1c(-c2ccc(Cc3ccccc3)cc2)[nH]c2ccccc12 | 3.3 µM (inactive) | 6.85 µM (inactive) | 7.06 µM (inactive) | 2.57 µM (inactive) | 4.46 µM (inactive) | 4.37 µM (inactive) | 4.05 µM (inactive) | 2.56 µM (inactive) | > 94.4 µM (inactive) | 26.1 µM (inactive) | 7.91 µM (inactive) | 2.29 µM (inactive) | 12.9 µM (inactive) | 3.56 µM (inactive) | 6.41 µM (inactive) | 14.2 µM (inactive) | 4.47 µM (inactive) | 21.5 µM (inactive) | 6.01 µM (inactive) | 7.69 µM (inactive)
CC(C)(C)OC(=O)C1=C(N)N(Cc2ccccc2)C2(C)C=CC(=O)C=C12 (stereo not given) | 3.83 µM (inactive) | 12.4 µM (inactive) | 1.88 µM (inactive) | 14.5 µM (inactive) | 2.74 µM (inactive) | 6.49 µM (inactive) | 2.34 µM (inactive) | 2.48 µM (inactive) | 12.9 µM (inactive) | 18.1 µM (inactive) | 2.45 µM (inactive) | 2.44 µM (inactive) | 7.41 µM (inactive) | 11.7 µM (inactive) | 4.31 µM (inactive) | 16.1 µM (inactive) | 13 µM (inactive) | 3.44 µM (inactive) | 8.73 µM (inactive) | 7.93 µM (inactive)
CCOC(=O)C(NC(=O)CC)(N1CCN(c2cc3c(cc2F)c(=O)c(C(=O)O)cn3C2CC2)CC1)C(F)(F)F (stereo not given) | > 100 µM (inactive) | > 100 µM (inactive) | > 100 µM (inactive) | > 100 µM (inactive) | > 100 µM (inactive) | > 100 µM (inactive) | > 100 µM (inactive) | > 100 µM (inactive) | > 100 µM (inactive) | > 100 µM (inactive) | > 100 µM (inactive) | > 100 µM (inactive) | > 100 µM (inactive) | > 100 µM (inactive) | > 100 µM (inactive) | > 100 µM (inactive) | > 100 µM (inactive) | > 100 µM (inactive) | 92.9 µM (inactive) | > 100 µM (inactive)
Cc1cc2c([N+](=O)[O-])cc3c(c2o1)C(=O)C=CC3=O | 2.01 µM (inactive) | 18.3 µM (inactive) | 2.2 µM (inactive) | 18.5 µM (inactive) | 1.79 µM (inactive) | 16.6 µM (inactive) | 6.76 µM (inactive) | 0.415 µM (active) | 28.6 µM (inactive) | 20 µM (inactive) | 19.6 µM (inactive) | 1.89 µM (inactive) | 8.85 µM (inactive) | 19.1 µM (inactive) | 14.2 µM (inactive) | 15.5 µM (inactive) | 25.6 µM (inactive) | 2.38 µM (inactive) | 17.7 µM (inactive) | 15.2 µM (inactive)
CC(C)OC(=O)c1ccc(CCC2=CC(=O)C(Br)=CC2=O)cc1 | 16.5 µM (inactive) | 34.7 µM (inactive) | 2.16 µM (inactive) | 15.7 µM (inactive) | 2.84 µM (inactive) | 13 µM (inactive) | 15.9 µM (inactive) | 3.09 µM (inactive) | 19.8 µM (inactive) | 22.1 µM (inactive) | 15.3 µM (inactive) | 17.1 µM (inactive) | 18.2 µM (inactive) | 15.6 µM (inactive) | 12.8 µM (inactive) | 15.3 µM (inactive) | 16.1 µM (inactive) | 19.7 µM (inactive) | 15.6 µM (inactive) | 17.5 µM (inactive)
